Laboratory results: US3998795A, “(Acyl-D-α-amino acid-gly-gly-tyr-ala)^1 -somatostatin” (American Home Products Corporation, priority 1975, dated 1976)

Test system: growth hormone
Experiment: In vivo growth hormone release inhibition in Nembutal-treated rats, plasma growth hormone by radioimmunoassay
Conditions: rats 200-250 g, Nembutal 50 mg/kg i.p.; after 5 min octadecapeptide 1000 micrograms/kg s.c.; blood sampled 15 min after administration; control 236 ± 30; p<0.01
Experimental: The in vivo activity of the octadecapeptides of this invention was established with (CH3 CO-D-Ala-Gly-Gly-L-Tyr-L-Ala)^1 -Somatostatin as a representative member of the octadecapeptides of this invention by injecting Nembutal intraperitoneally into rats weighing between 200 and 250 grams in an amount of 50 milligrams per kilogram body weight. After five minutes, the octadecapeptide was administered to the rats, subcutaneously, at a dose of 1000 micrograms per kilogram body weight. The rats blood was sampled 15 minutes after administration of the octadecapeptide and the amount of growth hormone present in the plasma was determined by radioimmunoassay. The octadecapeptide afforded a blood plasma concentration of growth hormone in the test animals of 74 ± 16 nanograms per milliliter as opposed to the concentration of growth hormone in the control animals of 236 ± 30 nanograms per milliliter, at a statistical certainty of p<0.01.

With CC(=O)N[C@H](C)C(=O)NCC(=O)NCC(=O)N[C@@H](Cc1ccc(O)cc1)C(=O)N[C@@H](C)C(=O)NCC(=O)N[C@H]1CSSC[C@@H](C(=O)O)NC(=O)[C@H](CO)NC(=O)[C@H]([C@@H](C)O)NC(=O)[C@H](Cc2ccccc2)NC(=O)[C@H]([C@@H](C)O)NC(=O)[C@H](CCCCN)NC(=O)[C@H](Cc2c[nH]c3ccccc23)NC(=O)[C@H](Cc2ccccc2)NC(=O)[C@H](Cc2ccccc2)NC(=O)[C@H](CC(N)=O)NC(=O)[C@H](CCCCN)NC1=O [N-α-Acetyl-D-alanyl-glycyl-glycyl-L-tyrosyl-L-alanyl-glycyl-L-cysteinyl-L-lysyl-L-asparaginyl-L-phenylalanyl-L-phenylalanyl-L-tryptophyl-L-lysyl-L-threonyl-L-phenylalanyl-L-threonyl-L-seryl-L-cysteine (7-18 disulfide) diacetate] the “blood plasma concentration of growth hormone” value was 74 ± 16 nanograms per milliliter.
